{"source": "ChEMBL document CHEMBL1201862", "about": "“PubChem BioAssay data set” (2004)", "experiment_in_all_cases": "DTP human tumour cell line panel, 48 h", "key": {"A549": {"tested_on": "A549"}, "HCT-15": {"tested_on": "HCT-15"}, "RPMI-8226": {"tested_on": "RPMI-8226"}, "NCI-H226": {"tested_on": "NCI-H226"}, "HL-60": {"tested_on": "HL-60"}, "OVCAR-5": {"tested_on": "OVCAR-5"}, "CCRF-CEM": {"tested_on": "CCRF-CEM"}, "COLO 205": {"tested_on": "COLO 205"}, "SNB-19": {"tested_on": "SNB-19"}, "SK-MEL-5": {"tested_on": "SK-MEL-5"}, "M14": {"tested_on": "M14"}, "MCF7": {"tested_on": "MCF7"}, "OVCAR-3": {"tested_on": "OVCAR-3"}, "SK-MEL-28": {"tested_on": "SK-MEL-28"}, "UO-31": {"tested_on": "UO-31"}, "TK-10": {"tested_on": "TK-10"}, "K562": {"tested_on": "K562"}, "ACHN": {"tested_on": "ACHN"}, "SF-539": {"tested_on": "SF-539"}, "LOX IMVI": {"tested_on": "LOX IMVI"}, "KM12": {"tested_on": "KM12"}, "DU-145": {"tested_on": "DU-145"}, "IGROV-1": {"tested_on": "IGROV-1"}, "EKVX": {"tested_on": "EKVX"}, "MDA-MB-435": {"tested_on": "MDA-MB-435"}, "HCC 2998": {"tested_on": "HCC 2998"}, "Hs-578T": {"tested_on": "Hs-578T"}, "Malme-3M": {"tested_on": "Malme-3M"}, "MDA-N": {"tested_on": "MDA-N"}, "NCI-H460": {"tested_on": "NCI-H460"}, "HCT-116": {"tested_on": "HCT-116"}, "A498": {"tested_on": "A498"}, "SN12C": {"tested_on": "SN12C"}, "SF-295": {"tested_on": "SF-295"}, "MOLT-4": {"tested_on": "MOLT-4"}, "HT-29": {"tested_on": "HT-29"}, "MDA-MB-231": {"tested_on": "MDA-MB-231"}, "OVCAR-4": {"tested_on": "OVCAR-4"}, "BT-549": {"tested_on": "BT-549"}, "OVCAR-8": {"tested_on": "OVCAR-8"}, "786-0": {"tested_on": "786-0"}, "SW-620": {"tested_on": "SW-620"}, "UACC-257": {"tested_on": "UACC-257"}, "U-251": {"tested_on": "U-251"}, "SR": {"tested_on": "SR"}, "NCI/ADR-RES": {"tested_on": "NCI/ADR-RES"}, "HOP-62": {"tested_on": "HOP-62"}, "PC-3": {"tested_on": "PC-3"}, "NCI-H23": {"tested_on": "NCI-H23"}, "RXF 393": {"tested_on": "RXF 393"}, "CAKI-1": {"tested_on": "CAKI-1"}, "NCI-H522": {"tested_on": "NCI-H522"}, "SF-268": {"tested_on": "SF-268"}, "SNB-75": {"tested_on": "SNB-75"}, "UACC-62": {"tested_on": "UACC-62"}, "T47D": {"tested_on": "T47D"}, "SK-OV-3": {"tested_on": "SK-OV-3"}}, "note": "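1) Cells in 96-well plates. 2) Compound, 48 h, 5 concentrations. 3) Linear interpolation between surrounding doses. 4) Unreached endpoint = highest concentration. GI50 marks 50% less growth.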 Activity calls are given as the source filed them. Cut-off read from the data, not from the text of the source: active = GI50 up to about 1.1 µM and inactive = higher."}
{"molecule": "Nc1nc(NNc2ccccc2F)cc(=O)[nH]1", "values": [{"measurement": "GI50", "setting": "A549", "value": "> 100 µM (inactive)"}, {"measurement": "GI50", "setting": "HCT-15", "value": "> 100", "unit": "µM"}, {"measurement": "GI50", "setting": "RPMI-8226", "value": "54.2 µM (inactive)"}, {"measurement": "GI50", "setting": "NCI-H226", "value": "> 100 µM (inactive)"}, {"measurement": "GI50", "setting": "HL-60", "value": "56.8 µM (inactive)"}, {"measurement": "GI50", "setting": "OVCAR-5", "value": "> 100 µM (inactive)"}, {"measurement": "GI50", "setting": "CCRF-CEM", "value": "78.5 µM (inactive)"}, {"measurement": "GI50", "setting": "COLO 205", "value": "97.1 µM (inactive)"}, {"measurement": "GI50", "setting": "SNB-19", "value": "> 100 µM (inactive)"}, {"measurement": "GI50", "setting": "SK-MEL-5", "value": "> 100 µM (inactive)"}, {"measurement": "GI50", "setting": "M14", "value": "> 100 µM (inactive)"}, {"measurement": "GI50", "setting": "MCF7", "value": "> 100 µM (inactive)"}, {"measurement": "GI50", "setting": "OVCAR-3", "value": "> 100 µM (inactive)"}, {"measurement": "GI50", "setting": "SK-MEL-28", "value": "> 100 µM (inactive)"}, {"measurement": "GI50", "setting": "UO-31", "value": "> 100 µM (inactive)"}, {"measurement": "GI50", "setting": "TK-10", "value": "> 100 µM (inactive)"}, {"measurement": "GI50", "setting": "K562", "value": "58.6 µM (inactive)"}, {"measurement": "GI50", "setting": "ACHN", "value": "> 100 µM (inactive)"}, {"measurement": "GI50", "setting": "SF-539", "value": "> 100 µM (inactive)"}, {"measurement": "GI50", "setting": "LOX IMVI", "value": "42 µM (inactive)"}, {"measurement": "GI50", "setting": "KM12", "value": "> 100 µM (inactive)"}, {"measurement": "GI50", "setting": "DU-145", "value": "> 100 µM (inactive)"}, {"measurement": "GI50", "setting": "IGROV-1", "value": "> 100 µM (inactive)"}, {"measurement": "GI50", "setting": "EKVX", "value": "> 100 µM (inactive)"}, {"measurement": "GI50", "setting": "MDA-MB-435", "value": "> 100 µM (inactive)"}, {"measurement": "GI50", "setting": "HCC 2998", "value": "> 100 µM (inactive)"}, {"measurement": "GI50", "setting": "Hs-578T", "value": "> 100 µM (inactive)"}, {"measurement": "GI50", "setting": "Malme-3M", "value": "> 100 µM (inactive)"}, {"measurement": "GI50", "setting": "MDA-N", "value": "> 100 µM (inactive)"}, {"measurement": "GI50", "setting": "NCI-H460", "value": "> 100 µM (inactive)"}, {"measurement": "GI50", "setting": "HCT-116", "value": "> 100 µM (inactive)"}, {"measurement": "GI50", "setting": "A498", "value": "> 100 µM (inactive)"}, {"measurement": "GI50", "setting": "SN12C", "value": "> 100 µM (inactive)"}, {"measurement": "GI50", "setting": "SF-295", "value": "> 100 µM (inactive)"}, {"measurement": "GI50", "setting": "MOLT-4", "value": "> 100 µM (inactive)"}, {"measurement": "GI50", "setting": "HT-29", "value": "> 100 µM (inactive)"}, {"measurement": "GI50", "setting": "MDA-MB-231", "value": "> 100 µM (inactive)"}, {"measurement": "GI50", "setting": "OVCAR-4", "value": "> 100 µM (inactive)"}, {"measurement": "GI50", "setting": "BT-549", "value": "> 100 µM (inactive)"}, {"measurement": "GI50", "setting": "OVCAR-8", "value": "> 100 µM (inactive)"}, {"measurement": "GI50", "setting": "786-0", "value": "58.1 µM (inactive)"}, {"measurement": "GI50", "setting": "SW-620", "value": "> 100 µM (inactive)"}, {"measurement": "GI50", "setting": "UACC-257", "value": "> 100 µM (inactive)"}, {"measurement": "GI50", "setting": "U-251", "value": "82.2 µM (inactive)"}, {"measurement": "GI50", "setting": "SR", "value": "> 100 µM (inactive)"}, {"measurement": "GI50", "setting": "NCI/ADR-RES", "value": "> 100 µM (inactive)"}, {"measurement": "GI50", "setting": "HOP-62", "value": "> 100 µM (inactive)"}, {"measurement": "GI50", "setting": "PC-3", "value": "> 100 µM (inactive)"}]}
{"molecule": "c1cc(C[S+]2CCCC2)oc1C[S+]1CCCC1", "values": [{"measurement": "GI50", "setting": "A549", "value": "> 100 µM (inactive)"}, {"measurement": "GI50", "setting": "HCT-15", "value": "> 100", "unit": "µM"}, {"measurement": "GI50", "setting": "CCRF-CEM", "value": "> 100 µM (inactive)"}, {"measurement": "GI50", "setting": "COLO 205", "value": "> 100 µM (inactive)"}, {"measurement": "GI50", "setting": "SNB-19", "value": "> 100 µM (inactive)"}, {"measurement": "GI50", "setting": "SK-MEL-5", "value": "> 100 µM (inactive)"}, {"measurement": "GI50", "setting": "M14", "value": "> 100 µM (inactive)"}, {"measurement": "GI50", "setting": "OVCAR-3", "value": "> 100 µM (inactive)"}, {"measurement": "GI50", "setting": "SK-MEL-28", "value": "> 100 µM (inactive)"}, {"measurement": "GI50", "setting": "UO-31", "value": "> 100 µM (inactive)"}, {"measurement": "GI50", "setting": "TK-10", "value": "> 100 µM (inactive)"}, {"measurement": "GI50", "setting": "K562", "value": "> 100 µM (inactive)"}, {"measurement": "GI50", "setting": "ACHN", "value": "> 100 µM (inactive)"}, {"measurement": "GI50", "setting": "NCI-H23", "value": "> 100 µM (inactive)"}, {"measurement": "GI50", "setting": "RXF 393", "value": "> 100 µM (inactive)"}, {"measurement": "GI50", "setting": "SF-539", "value": "> 100 µM (inactive)"}, {"measurement": "GI50", "setting": "LOX IMVI", "value": "> 100 µM (inactive)"}, {"measurement": "GI50", "setting": "CAKI-1", "value": "> 100 µM (inactive)"}, {"measurement": "GI50", "setting": "DU-145", "value": "> 100 µM (inactive)"}, {"measurement": "GI50", "setting": "IGROV-1", "value": "> 100 µM (inactive)"}, {"measurement": "GI50", "setting": "NCI-H522", "value": "> 100 µM (inactive)"}, {"measurement": "GI50", "setting": "SF-268", "value": "> 100 µM (inactive)"}, {"measurement": "GI50", "setting": "EKVX", "value": "> 100 µM (inactive)"}, {"measurement": "GI50", "setting": "MDA-MB-435", "value": "> 100 µM (inactive)"}, {"measurement": "GI50", "setting": "HCC 2998", "value": "> 100 µM (inactive)"}, {"measurement": "GI50", "setting": "Hs-578T", "value": "> 100 µM (inactive)"}, {"measurement": "GI50", "setting": "Malme-3M", "value": "> 100 µM (inactive)"}, {"measurement": "GI50", "setting": "MDA-N", "value": "> 100 µM (inactive)"}, {"measurement": "GI50", "setting": "NCI-H460", "value": "> 100 µM (inactive)"}, {"measurement": "GI50", "setting": "HCT-116", "value": "> 100 µM (inactive)"}, {"measurement": "GI50", "setting": "A498", "value": "53.6 µM (inactive)"}, {"measurement": "GI50", "setting": "SN12C", "value": "> 100 µM (inactive)"}, {"measurement": "GI50", "setting": "SF-295", "value": "> 100 µM (inactive)"}, {"measurement": "GI50", "setting": "SNB-75", "value": "> 100 µM (inactive)"}, {"measurement": "GI50", "setting": "UACC-62", "value": "> 100 µM (inactive)"}, {"measurement": "GI50", "setting": "T47D", "value": "> 100 µM (inactive)"}, {"measurement": "GI50", "setting": "MOLT-4", "value": "> 100 µM (inactive)"}, {"measurement": "GI50", "setting": "HT-29", "value": "> 100 µM (inactive)"}, {"measurement": "GI50", "setting": "SK-OV-3", "value": "> 100 µM (inactive)"}, {"measurement": "GI50", "setting": "MDA-MB-231", "value": "> 100 µM (inactive)"}, {"measurement": "GI50", "setting": "OVCAR-4", "value": "> 100 µM (inactive)"}, {"measurement": "GI50", "setting": "BT-549", "value": "> 100 µM (inactive)"}, {"measurement": "GI50", "setting": "OVCAR-8", "value": "> 100 µM (inactive)"}, {"measurement": "GI50", "setting": "786-0", "value": "> 100 µM (inactive)"}, {"measurement": "GI50", "setting": "SW-620", "value": "> 100 µM (inactive)"}, {"measurement": "GI50", "setting": "UACC-257", "value": "> 100 µM (inactive)"}, {"measurement": "GI50", "setting": "U-251", "value": "> 100 µM (inactive)"}, {"measurement": "GI50", "setting": "NCI/ADR-RES", "value": "> 100 µM (inactive)"}, {"measurement": "GI50", "setting": "HOP-62", "value": "> 100 µM (inactive)"}, {"measurement": "GI50", "setting": "PC-3", "value": "> 100 µM (inactive)"}]}
